The data set concerns Caco-2 cell. As to the kind of experiment: Caco-2 monolayer cell transmission rate (in vitro intestinal absorption model). Type of data set: in vitro ADME, human. The source says:
The common use of the activity selection model for the in vitro intestinal absorption comprises: (1) Carcinoms (Caco-2); (2) Using Chamber; (3) Everted Gut Sac. Basically, there is no difference for those three drug-activity-selection models when they are used for evaluating the activity selection. However, in terms of the cell source from human, a cell line is predominant. Moreover, with the cellular metabolism being similar to human intestines, Caco-2 becomes an excellent tool in the study of intestine absorption. Therefore, in the comparison of the in vitro transmission rate between gabapentin and gabapentin derivatives, the Caco-2 system is still the favorable model.
The research for studying gabapentin and the derivatives thereof in the present invention includes: Caco-2 cell activation, Caco-2 monolayer cell cultivation, resistance value measurement, effect of time to gabapentin transmission rate, and comparison of transmission rate between gabapentin and gabapentin derivatives. In constructing the Caco-2 monolayer, the original cell line is the human colon adenocarcinoma cell (Caco-2), and its data sheet is listed as Table 2.
The Caco-2 cell is activated appropriately, and seeded in the transwell at 37° C. in an amount of about 1×10^5. The aliquot is cultivated in 5% CO2 at 37° C. and replaced with a fresh medium every 3 to 4 days, and then the monolayer cell is obtained by the 21 days cultivation. The integrity of the Caco-2 cell is further characterized by tissue section and resistance value measurement.
HPLC Analysis: Intersil ODS-3V 250*4.6 mm column, Solvent: MeOH/H2O=10:90 to 70:30 with 0.1% of NH4OAc, Flow rate=1.0 ml/min, ELSD: Evaporative Light Scattering Detector. Every derivative has been repeated for 3 times in analysis, 4 hr later, the sample is analyzed for the transmission rate and then averaged to account its transmission fold.

[1] abbreviates: Caco-2 monolayer, 4 h, mean of 3 repeats, HPLC-ELSD.
The mark [2] stands for this setting: ratio of Caco-2 transmission rate to GBP.HCl, 4 h.

Molecules are shown by their SMILES. Where a name gives a salt, the structure may show the parent alone.

In the case of `NCC1(CC(=O)O)CCCCC1` [Control 1, Gabapentin HCl, reference compound], the “Caco-2 Cell Mean Total Transmission rate 4 h (%)” value under setting [1] was 1.1%. Also, the “gbp-prodrug/gbp Transmission Fold” value under setting [2] was 1 Fold.

`CC(C)C[C@@H](NC(=O)OC(C)(C)C)C(=O)NCC1(CC(=O)O)CCCCC1` [Embodiment 1, {1-[(2R-tert-Butoxycarbonylamino-4-methyl-pentanoylamino)-methyl]-cyclohexyl}-acetic acid]: under setting [1], the “Caco-2 Cell Mean Total Transmission rate 4 h (%)” value is given as 29%. Also, the “gbp-prodrug/gbp Transmission Fold” value under setting [2] worked out at 26.4 Fold.

On to `CC(C)(C)OC(=O)NC(C(=O)NCC1(CC(=O)O)CCCCC1)c1ccccc1` (stereo not shown) [Embodiment 3, {1-[(2-tert-Butoxycarbonylamino-2-phenyl-acetylamino)-methyl]-cyclohexyl}-acetic acid], for which the “Caco-2 Cell Mean Total Transmission rate 4 h (%)” value under setting [1] worked out at 3.1%. Besides, under setting [2], the “gbp-prodrug/gbp Transmission Fold” value is 2.8 Fold.

Consider `CC(C)(C)OC(=O)NC(Cc1ccccc1)C(=O)NCC1(CC(=O)O)CCCCC1` (stereo not shown) [Embodiment 4, {1-[(2-tert-Butoxycarbonylamino-3-phenyl-propionylamino)-methyl]-cyclohexyl}-acetic acid], for which, under setting [1], the “Caco-2 Cell Mean Total Transmission rate 4 h (%)” value is recorded as 10%. In addition, the “gbp-prodrug/gbp Transmission Fold” value under setting [2] worked out at 9.1 Fold.

`CSCCC(NC(=O)OC(C)(C)C)C(=O)NCC1(CC(=O)O)CCCCC1` (stereo not shown) [Embodiment 5, {1-[(2-tert-Butoxycarbonylamino-4-methylsulfanyl-butyrylamino)-methyl]-cyclohexyl}-acetic acid]: the “Caco-2 Cell Mean Total Transmission rate 4 h (%)” value under setting [1] amounted to 26%. Besides, the “gbp-prodrug/gbp Transmission Fold” value under setting [2] worked out at 23.6 Fold.

For `CC(C)(C)OC(=O)NCC1(CC(=O)NCC2(CC(=O)O)CCCCC2)CCCCC1` [Embodiment 6, [1-({2-[1-(tert-Butoxycarbonylamino-methyl)-cyclohexyl]-acetylamino}-methyl)-cyclohexyl]-acetic acid], the “Caco-2 Cell Mean Total Transmission rate 4 h (%)” value under setting [1] was 27%. Moreover, under setting [2], the “gbp-prodrug/gbp Transmission Fold” value turned out to be 24.5 Fold.

Take `CCOC(=O)CC1(CNC(=O)C2CCNCC2)CCCCC1` [Embodiment 7, (1-{[(Piperidine-4-carbonyl)-amino]-methyl}-cyclohexyl)-acetic acid ethyl ester]: under “human, Caco-2, 4 h”, the “Caco-2 Cell Mean Total Transmission rate 4 h (%)” value is recorded as 1% and the “gbp-prodrug/gbp Transmission Fold” value was determined as 0.9 Fold.

For `CCOC(=O)CC1(CNC(=O)c2ccccc2)CCCCC1` [Embodiment 8, [1-(Benzoylamino-methyl)-cyclohexyl]-acetic acid ethyl ester], for the setting “human, Caco-2, 4 h”, the “Caco-2 Cell Mean Total Transmission rate 4 h (%)” value is on record as 21.4% and the “gbp-prodrug/gbp Transmission Fold” value is listed as 19.5 Fold.

Consider `CCOC(=O)CC1(CNC(=O)C2(N)CCCCC2)CCCCC1` [Embodiment 9, (1-{[(1-Amino-cyclohexanecarbonyl)-amino]-methyl}-cyclohexyl)-acetic acid ethyl ester], for which, where the note is “human, Caco-2, 4 h”, the “Caco-2 Cell Mean Total Transmission rate 4 h (%)” value came out at 10.4% and the “gbp-prodrug/gbp Transmission Fold” value was found to be 9.5 Fold.

For the molecule `CC(C)(C)OC(=O)NC(CO)C(=O)NCC1(CC(=O)O)CCCCC1` (stereo not shown) [Embodiment 10, {1-[(2-tert-Butoxycarbonylamino-3-hydroxy-propionylamino)-methyl]-cyclohexyl}-acetic acid], where the note is “human, Caco-2, 4 h”, the “Caco-2 Cell Mean Total Transmission rate 4 h (%)” value worked out at 20.7% and the “gbp-prodrug/gbp Transmission Fold” value is recorded as 18.8 Fold.

With `CCOC(=O)CC1(CNC(=O)C(C)N)CCCCC1` (stereo not shown) [Embodiment 11, {1-[(2-Amino-propionylamino)-methyl]-cyclohexyl}-acetic acid ethyl ester], for the setting “human, Caco-2, 4 h”, the “Caco-2 Cell Mean Total Transmission rate 4 h (%)” value is listed as 17.6% and the “gbp-prodrug/gbp Transmission Fold” value is 16.0 Fold.

Take `CCOC(=O)C(Cc1ccccc1)NC(=O)C(C)NC(=O)CC1(CN)CCCCC1` (stereo not shown) [Embodiment 12, 2-{2-[2-(1-Aminonethyl-cyclohexyl)-acetylamino]-propionylamino}-3-phenyl-propionic acid ethyl ester]: under setting [1], the “Caco-2 Cell Mean Total Transmission rate 4 h (%)” value is given as 2.83%. Moreover, the “gbp-prodrug/gbp Transmission Fold” value under setting [2] is 2.6 Fold.

With `CCOC(=O)CC1(CNC(=O)C(N)CC(C)C)CCCCC1` (stereo not shown) [Embodiment 13, {1-[(2-Amino-4-methyl-pentanoylamino)-methyl]-cyclohexyl}-acetic acid ethyl ester], under “human, Caco-2, 4 h”, the “Caco-2 Cell Mean Total Transmission rate 4 h (%)” value was 12.37% and the “gbp-prodrug/gbp Transmission Fold” value is 11.2 Fold.

For the molecule `CCOC(=O)CC1(CNC(=O)C(N)CO)CCCCC1` (stereo not shown) [Embodiment 14, {1-[(2-Amino-3-hydroxy-propionylamino)-methyl]-cyclohexyl}-acetic acid ethyl ester], under “human, Caco-2, 4 h”, the “Caco-2 Cell Mean Total Transmission rate 4 h (%)” value was found to be 10.95% and the “gbp-prodrug/gbp Transmission Fold” value turned out to be 10.0 Fold.

For `CC(C)(C)OC(=O)NC(Cc1ccccc1)C(=O)NCC1(CC(=O)O)CCCCC1` (stereo not shown) [Embodiment 15, {1-[(2-tert-Butoxycarbonylamino-3-phenyl-propionylamino)-methyl]-cyclohexyl}-acetic acid], the “Caco-2 Cell Mean Total Transmission rate 4 h (%)” value under setting [1] was determined as 0.93%. Under setting [2], the “gbp-prodrug/gbp Transmission Fold” value is given as 0.8 Fold.

For the molecule `CCOC(=O)CC1(CNC(=O)C(N)Cc2ccccc2)CCCCC1` (stereo not shown) [Embodiment 16, {1-[(2-Amino-3-phenyl-propionylamino)-methyl]-cyclohexyl}-acetic acid ethyl ester], where the note is “human, Caco-2, 4 h”, the “Caco-2 Cell Mean Total Transmission rate 4 h (%)” value was found to be 10.30% and the “gbp-prodrug/gbp Transmission Fold” value turned out to be 9.4 Fold.

As for `CCOC(=O)CC1(CNC(=O)C(N)C(C)CC)CCCCC1` (stereo not shown) [Embodiment 17, {1-[(2-Amino-3-methyl-pentanoylamino)-methyl]-cyclohexyl}-acetic acid ethyl ester], for the setting “human, Caco-2, 4 h”, the “Caco-2 Cell Mean Total Transmission rate 4 h (%)” value is 9.47% and the “gbp-prodrug/gbp Transmission Fold” value was determined as 8.6 Fold.

Take `CCOC(=O)CC1(CNC(=O)c2ccccc2CN)CCCCC1` [Embodiment 18, {1-[(2-Aminomethyl-benzoylamino)-methyl]-cyclohexyl}-acetic acid ethyl ester]: under “human, Caco-2, 4 h”, the “Caco-2 Cell Mean Total Transmission rate 4 h (%)” value stood at 2.13% and the “gbp-prodrug/gbp Transmission Fold” value is listed as 1.9 Fold.

On to `CCOC(=O)CC1(CNC(=O)C2CCC(CN)CC2)CCCCC1` (stereo not shown) [Embodiment 19, (1-{[(4-Aminomethyl-cyclohexanecarbonyl)-amino]-methyl}-cyclohexyl)-acetic acid ethyl ester], for which, for the setting “human, Caco-2, 4 h”, the “Caco-2 Cell Mean Total Transmission rate 4 h (%)” value amounted to 11.14% and the “gbp-prodrug/gbp Transmission Fold” value was 10.1 Fold.

On to `CCOC(=O)CC1(CNC(=O)C(CC(C)C)NC(=O)CC2(CN)CCCCC2)CCCCC1` (stereo not shown) [Embodiment 20, [1-({2-[2-(1-Aminomethyl-cyclohexyl)-acetylamino]-4-methyl-pentanoylamino}-methyl)-cyclohexyl]-acetic acid ethyl ester], for which the “Caco-2 Cell Mean Total Transmission rate 4 h (%)” value under setting [1] is 12.22%. Moreover, under setting [2], the “gbp-prodrug/gbp Transmission Fold” value worked out at 11.1 Fold.

For the molecule `CCOC(=O)CC1(CNC(=O)C(NC(=O)CC2(CN)CCCCC2)c2ccccc2)CCCCC1` (stereo not shown) [Embodiment 21, [1-({2-[2-(1-Aminomethyl-cyclohexyl)-acetylamino]-2-phenyl-acetylamino}-methyl)-cyclohexyl]-acetic acid ethyl ester], the “Caco-2 Cell Mean Total Transmission rate 4 h (%)” value under setting [1] is on record as 8.58%. The “gbp-prodrug/gbp Transmission Fold” value under setting [2] was 7.8 Fold.

Turning to `CCOC(=O)CC1(CNC(=O)C(Cc2ccccc2)NC(=O)CC2(CN)CCCCC2)CCCCC1` (stereo not shown) [Embodiment 22, [1-({2-[2-(1-Aminomethyl-cyclohexyl)-acetylamino]-3-phenyl-propionylamino}-methyl)-cyclohexyl]-acetic acid ethyl ester], the “Caco-2 Cell Mean Total Transmission rate 4 h (%)” value under setting [1] worked out at 9.26%. Further, under setting [2], the “gbp-prodrug/gbp Transmission Fold” value is on record as 8.4 Fold.

On to `NCC1(CC(=O)N2CCCC2C(=O)NCC2(CC(=O)O)CCCCC2)CCCCC1` (stereo not shown) [Embodiment 23, {1-[({1-[2-(1-Aminomethyl-cyclohexyl)-acetyl]-pyrrolidine-2-carbonyl}-amino)-methyl]-cyclohexyl}-acetic acid], for which the “Caco-2 Cell Mean Total Transmission rate 4 h (%)” value under setting [1] is recorded as 10.73%. Further, the “gbp-prodrug/gbp Transmission Fold” value under setting [2] came out at 9.8 Fold.

For the molecule `CCOC(=O)CC1(CNC(=O)c2ccc(O)c(OC)c2)CCCCC1` [Embodiment 24, {1-[(4-Hydroxy-3-methoxy-benzoylamino)-methyl]-cyclohexyl}-acetic acid ethyl ester], where the note is “human, Caco-2, 4 h”, the “Caco-2 Cell Mean Total Transmission rate 4 h (%)” value is 13.59% and the “gbp-prodrug/gbp Transmission Fold” value is on record as 12.4 Fold.

For the molecule `CCOC(=O)CC1(CNC(=O)C2CCC(=O)N2)CCCCC1` (stereo not shown) [Embodiment 25, (1-{[(5-Oxo-pyrrolidine-2-carbonyl)-amino]-methyl}-cyclohexyl)-acetic acid ethyl ester], where the note is “human, Caco-2, 4 h”, the “Caco-2 Cell Mean Total Transmission rate 4 h (%)” value is 5.68% and the “gbp-prodrug/gbp Transmission Fold” value was found to be 5.2 Fold.

For `CCOC(=O)CC1(CNC(=O)C(N)CCSC)CCCCC1` (stereo not shown) [Embodiment 26, {1-[(2-Amino-4-methylsulfanyl-butyrylamino)-methyl]-cyclohexyl}-acetic acid ethyl ester], for the setting “human, Caco-2, 4 h”, the “Caco-2 Cell Mean Total Transmission rate 4 h (%)” value stood at 9.02% and the “gbp-prodrug/gbp Transmission Fold” value is reported as 8.2 Fold.

Source of the values: patent US7037939B2, “Compound and derivative of gabapentin” (Industrial Technology Research Institue, priority 2002, dated 2006).
